{
  "source": "patent US9499550B2",
  "about": "(BRISTOL-MYERS SQUIBB COMPANY, priority 2012, dated 2016)",
  "key": {"[1]": {"test_system": "HCV genotype 1b (Con1) replicon in HUH-7 cells", "assay": "HCV replicon luciferase reporter assay, genotype 1b", "assay_type": "cell-based", "settings": "Hepatitis C virus, Huh-7, 72 h, 3 days incubation, read-out: LE_1b (EC50, range)", "method_in_brief": "(§1)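 Replicon inhibition for both genotypes was measured as Renilla luciferase signal (EnduRen, 7.5 μM final, 2 h) after 3-day, 37° C exposure of replicon-bearing HUH-7 cells in 4% FCS DMEM, 0.5% DMSO. The 1b construct carries S1179I; the 1a H77 construct carries P1496L and S2204I. Twenty-point, 3-fold dilutions were fitted four-parametrically for EC50, and CC50 was taken from multiplexed Cell Titer-Blue.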"}, "[2]": {"test_system": "HCV genotype 1a (H77 strain) replicon in HUH-7 cells", "assay": "HCV replicon luciferase reporter assay, genotype 1a", "assay_type": "cell-based", "settings": "Hepatitis C virus, Huh-7, 72 h, 3 days incubation, read-out: LE_1a (EC50, range)", "method_in_brief": "as §1"}, "[3]": {"settings": "HCV genotype 1b replicon luciferase"}, "[4]": {"settings": "HCV genotype 1a replicon luciferase"}, "[5]": {"settings": "HCV genotype 1b replicon luciferase assay, range class"}, "[6]": {"settings": "HCV genotype 1a replicon luciferase assay, range class"}},
  "note": "Read-outs that look alike come from different tables or passages of the source.",
  "data": [
    {"smiles": "C[C@@H]1CC/C=C\\[C@@H]2C[C@@]2(C(=O)NS(=O)(=O)C2CC2)NC(=O)[C@@H]2C[C@@H](Oc3ncc(OCC4CC4)c4ccc(F)cc34)CN2C(=O)[C@@H](NC(=O)OC(C)(C)C)[C@H](C)C1", "note": "[Compound 4166, tert-butyl (2R,6S,7R,9R,13aS,14aR,16aS,Z)-2-(4-(cyclopropylmethoxy)-7-fluoroisoquinolin-1-yloxy)-14a-(cyclopropylsulfonylcarbamoyl)-7,9-dimethyl-5,16-dioxo-1,2,3,5,6,7,8,9,10,11,13a,14,14a,15,16,16a-hexadecahydrocyclopropa[e]pyrrolo[1,2-a][1,4]diazacyclopentadecin-6-ylcarbamate]", "values": [
      {"measurement": "EC50", "setting": "[1]; [3]", "value": "< 5.46", "unit": "nM"},
      {"measurement": "EC50", "setting": "[2]; [4]", "value": "< 5.46", "unit": "nM"}
    ]},
    {"smiles": "COc1cc2ccnc(O[C@@H]3C[C@H]4C(=O)N[C@]5(C(=O)NS(=O)(=O)C6(CF)CC6)C[C@H]5/C=C\\CC[C@@H](C)C[C@@H](C)[C@H](NC(=O)c5ccc(F)cc5F)C(=O)N4C3)c2cc1F", "note": "[Compound 4097, (2R,6S,7R,9R,13aS,14aR,16aS,Z)-6-(2,4-difluorobenzamido)-2-(7-fluoro-6-methoxyisoquinolin-1-yloxy)-N-(1-(fluoromethyl)cyclopropylsulfonyl)-7,9-dimethyl-5,16-dioxo-1,2,3,5,6,7,8,9,10,11,13a,14,14a,15,16,16a-hexadecahydrocyclopropa[e]pyrrolo[1,2-a][1,4]diazacyclopentadecine-14a-carboxamide]", "values": [
      {"measurement": "EC50", "setting": "[1]; [3]", "value": "< 5.46", "unit": "nM"},
      {"measurement": "EC50", "setting": "[2]; [4]", "value": "< 5.46", "unit": "nM"}
    ]},
    {"smiles": "COc1ccc2c(O[C@@H]3C[C@H]4C(=O)N[C@]5(C(=O)NS(=O)(=O)C6(C)CC6)C[C@H]5/C=C\\CC[C@@H](C)C[C@@H](C)[C@H](NC(=O)OC(C)(C)C(F)(F)F)C(=O)N4C3)nc(N(C)C)nc2c1", "note": "[Compound 3004, 1,1,1-trifluoro-2-methylpropan-2-yl((2R,6S,7R,9R,13aS,14aR,16aS,Z)-2-((2-(dimethylamino)-7-methoxyquinazolin-4-yl)oxy)-7,9-dimethyl-14a-(((1-methylcyclopropyl)sulfonyl)carbamoyl)-5,16-dioxo-1,2,3,5,6,7,8,9,10,11,13a,14,14a,15,16,16a-hexadecahydrocyclopropa[e]pyrrolo[1,2-a][1,4]diazacyclopentadecin-6-yl)carbamate]", "values": [
      {"measurement": "EC50", "setting": "[1]; [5]", "value": "< 5.46", "unit": "nM"},
      {"measurement": "EC50", "setting": "[2]; [6]", "value": "< 5.46", "unit": "nM"}
    ]},
    {"smiles": "CCN(C)c1cc2cc(OC)ccc2c(O[C@@H]2C[C@H]3C(=O)N[C@]4(C(=O)NS(=O)(=O)C5(CF)CC5)C[C@H]4/C=C\\CC[C@H](C)C[C@@H](C)[C@H](NC(=O)OC(C)(C)C)C(=O)N3C2)n1", "note": "[Compound 1134, tert-butyl ((2R,6S,7R,9S,13aS,14aR,16aS,Z)-2-((3-(ethyl(methyl)amino)-6-methoxyisoquinolin-1-yl)oxy)-14a-(((1-(fluoromethyl)cyclopropyl)sulfonyl)carbamoyl)-7,9-dimethyl-5,16-dioxo-1,2,3,5,6,7,8,9,10,11,13a,14,14a,15,16,16a-hexadecahydrocyclopropa[e]pyrrolo[1,2-a][1,4]diazacyclopentadecin-6-yl)carbamate]", "values": [
      {"measurement": "EC50", "setting": "[1]; [5]", "value": "> 87.4", "unit": "nM"},
      {"measurement": "EC50", "setting": "[2]; [6]", "value": "> 87.4", "unit": "nM"}
    ]},
    {"smiles": "COc1ccc2c(O[C@@H]3C[C@H]4C(=O)N[C@]5(C(=O)NS(=O)(=O)C6(CF)CC6)C[C@H]5/C=C\\CC[C@H](C)C[C@@H](C)[C@H](NC(=O)OC5(C(F)(F)F)CCCOC5)C(=O)N4C3)ncc(C(F)(F)F)c2c1", "note": "(stereo partly drawn) [Compound 1176, 3-(trifluoromethyl)tetrahydro-2H-pyran-3-yl((2R,6S,7R,9S,13aS,14aR,16aS,Z)-14a-(((1-(fluoromethyl)cyclopropyl)sulfonyl)carbamoyl)-2-((6-methoxy-4-(trifluoromethyl)isoquinolin-1-yl)oxy)-7,9-dimethyl-5,16-dioxo-1,2,3,5,6,7,8,9,10,11,13a,14,14a,15,16,16a-hexadecahydrocyclopropa[e]pyrrolo[1,2-a][1,4]diazacyclopentadecin-6-yl)carbamate]", "values": [
      {"measurement": "EC50", "setting": "[1]; [5]", "value": "4.82 to 103", "unit": "nM"},
      {"measurement": "EC50", "setting": "[2]; [6]", "value": "4.82 to 103", "unit": "nM"}
    ]}
  ]
}
